Results as given in ChEMBL document CHEMBL1136306, “Design and synthesis of a new fluorescent probe for cytochrome P450 3A4 (CYP 3A4)” (Bioorg Med Chem Lett, 2003).
pIC50: −log10 of the molar value.

Target: Cytochrome P450 3A4 (Homo sapiens, UniProt P08684)
Sequence (P08684 whole entry): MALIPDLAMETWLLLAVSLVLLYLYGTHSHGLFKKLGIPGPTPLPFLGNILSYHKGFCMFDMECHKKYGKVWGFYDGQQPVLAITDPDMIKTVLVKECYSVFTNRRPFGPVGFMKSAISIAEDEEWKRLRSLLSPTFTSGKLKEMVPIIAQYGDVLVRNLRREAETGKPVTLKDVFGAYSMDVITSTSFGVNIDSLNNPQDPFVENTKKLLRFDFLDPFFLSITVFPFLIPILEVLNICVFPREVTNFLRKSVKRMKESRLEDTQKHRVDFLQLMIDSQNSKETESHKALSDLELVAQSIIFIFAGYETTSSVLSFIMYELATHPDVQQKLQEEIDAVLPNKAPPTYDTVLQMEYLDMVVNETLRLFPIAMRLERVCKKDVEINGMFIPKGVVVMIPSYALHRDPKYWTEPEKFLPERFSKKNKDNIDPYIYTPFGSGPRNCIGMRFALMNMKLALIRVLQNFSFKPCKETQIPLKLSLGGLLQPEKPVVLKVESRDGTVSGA

OC1N=C(c2ccccc2F)c2cc(Cl)ccc2-n2cncc21 (configuration not stated)
pIC50: 5.00

OCc1ncc2n1-c1ccc(Cl)cc1C(c1ccccc1F)=NC2 [ALPHA-HYDROXY-MIDAZOLAM]
pIC50: 5.00
